# Experimental data published in PubChem BioAssay (NCI).
#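 Method: 48-hour compound exposure of cells in 96-well plates, five concentrations, linear interpolation of endpoints. TGI is the concentration that stops growth completely.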
# Assays:
# Experiment in all cases: NCI-60 cell line screen, 48 h
# [1] = tested on: HL-60(TB) leukemia
# [2] = tested on: OVCAR-5 ovarian
# [3] = tested on: HOP-62 NSCLC
# [4] = tested on: M19-MEL melanoma
# [5] = tested on: HOP-18 NSCLC
# [6] = tested on: ACHN renal
# [7] = tested on: DMS 273 small cell lung
# [8] = tested on: KM20L2 colon
# [9] = tested on: RXF 393 renal
# [10] = tested on: SNB-78 CNS
# [11] = tested on: LXFL 529 NSCLC
# [12] = tested on: DMS 114 small cell lung
# [13] = tested on: SF-295 CNS
# [14] = tested on: DLD-1 colon
# [15] = tested on: XF 498 CNS
# [16] = tested on: RXF-631 renal
smiles,measurement,setting,value
COc1ccc(Nc2nnc(-c3nsc4ccccc34)s2)cc1,TGI,[1],> 100 µM
same,TGI,[2],> 100 µM
same,TGI,[3],36.1 µM
same,TGI,[4],> 100 µM
same,TGI,[5],2.66 µM
same,TGI,[6],> 100 µM
same,TGI,[7],> 100 µM
same,TGI,[8],> 100 µM
same,TGI,[9],> 78.9 µM
same,TGI,[10],> 100 µM
same,TGI,[11],> 100 µM
same,TGI,[12],> 100 µM
same,TGI,[13],> 100 µM
COc1cc2c(oc(=O)c3c4oc([Si](C)(C)C)cc4cc(OC)c23)c2cccc(OCc3ccccc3)c12,TGI,[1],> 92 µM
same,TGI,[2],> 100 µM
same,TGI,[3],47.6 µM
same,TGI,[4],> 100 µM
same,TGI,[5],63.8 µM
same,TGI,[14],> 100 µM
same,TGI,[6],> 100 µM
same,TGI,[7],72.8 µM
same,TGI,[8],> 100 µM
same,TGI,[9],> 48.2 µM
same,TGI,[10],91.6 µM
same,TGI,[15],27 µM
same,TGI,[11],> 61.8 µM
same,TGI,[12],> 100 µM
same,TGI,[13],50.9 µM
COc1ccc2c3c1O[C@]1(C)C34CCN(C)C(C2)C42C=C[C@@]1(OC)c1c(O)ccc(O)c12,TGI,[1],> 100 µM
same,TGI,[2],> 100 µM
same,TGI,[3],> 100 µM
same,TGI,[5],> 100 µM
same,TGI,[14],> 100 µM
same,TGI,[6],> 100 µM
same,TGI,[7],> 100 µM
same,TGI,[8],> 100 µM
same,TGI,[9],> 100 µM
same,TGI,[10],> 100 µM
same,TGI,[15],> 100 µM
same,TGI,[11],> 100 µM
same,TGI,[12],> 100 µM
same,TGI,[13],> 100 µM
C[N+](C)(C)CC(=O)N/N=C/c1oc(-c2c(O)ccc3ccccc23)c(-c2c(O)ccc3ccccc23)c1[N+](=O)[O-],TGI,[1],66.6 µM
same,TGI,[2],60.1 µM
same,TGI,[4],60.8 µM
same,TGI,[5],62.8 µM
same,TGI,[14],54.6 µM
same,TGI,[6],32.5 µM
same,TGI,[8],36 µM
same,TGI,[9],26.8 µM
same,TGI,[15],55.5 µM
same,TGI,[11],> 100 µM
same,TGI,[13],47.4 µM
C/C(=N\NS(=O)(=O)c1ccc(C)cc1)C(CN1CCCCC1)C(c1ccccc1)c1c(O)c2ccccc2oc1=O (stereo unspecified),TGI,[1],> 100 µM
same,TGI,[2],> 100 µM
same,TGI,[3],> 100 µM
same,TGI,[5],> 100 µM
same,TGI,[14],> 100 µM
same,TGI,[6],> 100 µM
same,TGI,[8],> 100 µM
same,TGI,[9],> 100 µM
same,TGI,[10],> 100 µM
same,TGI,[15],> 100 µM
same,TGI,[11],> 100 µM
same,TGI,[13],> 100 µM
COC(=O)C(=O)C(C(=O)C(=O)Nc1ccc(F)cc1)c1nc2ccc([N+](=O)[O-])cc2[nH]c1=O (stereo unspecified),TGI,[1],> 100 µM
same,TGI,[2],> 100 µM
same,TGI,[3],> 100 µM
same,TGI,[16],> 100 µM
same,TGI,[4],> 100 µM
same,TGI,[5],> 100 µM
same,TGI,[14],> 100 µM
same,TGI,[8],> 100 µM
same,TGI,[9],> 100 µM
same,TGI,[10],> 100 µM
same,TGI,[15],> 100 µM
same,TGI,[11],> 100 µM
same,TGI,[13],> 100 µM
O=C(CSc1nnc(-c2ccc(N=Cc3ccc(Cl)cc3)cc2)o1)Nc1ccccc1[N+](=O)[O-],TGI,[1],> 100 µM
same,TGI,[3],> 100 µM
same,TGI,[4],> 100 µM
same,TGI,[5],> 100 µM
same,TGI,[6],> 100 µM
same,TGI,[7],> 100 µM
same,TGI,[8],> 100 µM
same,TGI,[9],> 100 µM
same,TGI,[10],> 100 µM
same,TGI,[15],> 100 µM
same,TGI,[11],> 100 µM
same,TGI,[12],> 100 µM
same,TGI,[13],> 100 µM
CC1=NN(C(=O)c2ccccc2O)C(=O)/C1=C/c1ccco1,TGI,[1],> 26.8 µM
same,TGI,[2],> 100 µM
same,TGI,[4],20 µM
same,TGI,[14],> 100 µM
same,TGI,[6],> 100 µM
same,TGI,[8],81 µM
same,TGI,[10],> 100 µM
same,TGI,[15],> 100 µM
same,TGI,[11],> 100 µM
same,TGI,[12],6.94 µM
same,TGI,[13],> 88.3 µM
O=c1[nH]c2cc(Cl)ccc2nc1/C(=N\O)C(O)c1cccc([N+](=O)[O-])c1 (stereo unspecified),TGI,[1],> 100 µM
same,TGI,[2],> 100 µM
same,TGI,[3],> 100 µM
same,TGI,[16],> 100 µM
same,TGI,[4],> 100 µM
same,TGI,[5],> 100 µM
same,TGI,[14],> 100 µM
same,TGI,[6],> 100 µM
same,TGI,[8],> 100 µM
same,TGI,[9],> 100 µM
same,TGI,[15],> 100 µM
same,TGI,[11],> 100 µM
same,TGI,[12],> 100 µM
same,TGI,[13],> 100 µM
CC(=O)OCC1=C(CCC#N)N2C(=O)C(NC(=O)Cc3cccs3)C2S(=O)C1 (stereo unspecified),TGI,[1],> 100 µM
same,TGI,[2],> 100 µM
same,TGI,[3],> 100 µM
same,TGI,[4],> 100 µM
same,TGI,[5],> 100 µM
same,TGI,[14],> 100 µM
same,TGI,[6],> 100 µM
same,TGI,[7],> 100 µM
same,TGI,[8],> 100 µM
same,TGI,[9],> 100 µM
same,TGI,[10],> 100 µM
same,TGI,[15],> 100 µM
same,TGI,[12],> 100 µM
same,TGI,[13],> 100 µM
O=C(c1cccs1)N(C(=S)N1CCN(c2ccccn2)CC1)c1ccccc1,TGI,[1],> 100 µM
same,TGI,[2],> 100 µM
same,TGI,[3],> 100 µM
same,TGI,[4],> 100 µM
same,TGI,[5],> 100 µM
same,TGI,[14],> 100 µM
same,TGI,[6],> 100 µM
same,TGI,[7],> 100 µM
same,TGI,[8],> 100 µM
same,TGI,[9],> 100 µM
same,TGI,[10],> 100 µM
same,TGI,[15],84 µM
same,TGI,[11],> 100 µM
same,TGI,[12],> 100 µM
same,TGI,[13],> 100 µM
CC(=O)OC1COC(n2c(O)c(N=NC(N)=S)c3cc(Br)ccc32)C(OC(C)=O)C1OC(C)=O (stereo unspecified),TGI,[1],> 100 µM
same,TGI,[2],> 100 µM
same,TGI,[3],> 100 µM
same,TGI,[4],> 100 µM
same,TGI,[5],> 100 µM
same,TGI,[14],> 100 µM
same,TGI,[6],> 100 µM
same,TGI,[7],> 100 µM
same,TGI,[8],> 100 µM
same,TGI,[9],> 100 µM
same,TGI,[10],> 100 µM
same,TGI,[15],> 100 µM
same,TGI,[11],> 100 µM
same,TGI,[12],> 100 µM
same,TGI,[13],> 100 µM
NC(=O)N/N=C(\CC1OC(=O)c2ccccc21)c1ccco1 (stereo unspecified),TGI,[1],> 100 µM
same,TGI,[2],> 100 µM
same,TGI,[16],> 100 µM
same,TGI,[4],> 100 µM
same,TGI,[5],> 100 µM
same,TGI,[14],> 100 µM
same,TGI,[6],> 100 µM
same,TGI,[7],> 100 µM
same,TGI,[8],> 100 µM
same,TGI,[9],> 100 µM
same,TGI,[11],> 100 µM
same,TGI,[12],> 100 µM
same,TGI,[13],> 100 µM
COC(=O)N/N=C(\Cc1ccccc1)CN(C)C,TGI,[1],> 100 µM
same,TGI,[2],> 100 µM
same,TGI,[3],> 100 µM
same,TGI,[16],> 100 µM
same,TGI,[4],> 100 µM
same,TGI,[14],> 100 µM
same,TGI,[6],> 100 µM
same,TGI,[7],> 100 µM
same,TGI,[8],> 100 µM
same,TGI,[9],> 100 µM
same,TGI,[10],> 100 µM
same,TGI,[15],> 100 µM
same,TGI,[11],> 100 µM
same,TGI,[12],> 100 µM
same,TGI,[13],> 100 µM
CNS(=O)(=O)NN(C)S(=O)(=O)c1ccccc1,TGI,[1],> 100 µM
same,TGI,[3],> 100 µM
same,TGI,[4],> 100 µM
same,TGI,[14],> 100 µM
same,TGI,[6],> 100 µM
same,TGI,[7],> 100 µM
same,TGI,[8],> 100 µM
same,TGI,[9],> 100 µM
same,TGI,[11],> 100 µM
same,TGI,[12],> 100 µM
same,TGI,[13],> 100 µM
CCOC(=O)c1cccn1S(=O)(=O)c1cc(Cl)ccc1NC(=O)CC,TGI,[1],> 100 µM
same,TGI,[2],> 100 µM
same,TGI,[3],> 100 µM
same,TGI,[6],> 100 µM
same,TGI,[9],> 100 µM
same,TGI,[13],> 100 µM
Cn1c2ccccc2n2c(N=O)c(-c3ccccc3)nc12,TGI,[1],> 100 µM
same,TGI,[2],> 100 µM
same,TGI,[3],27.6 µM
same,TGI,[6],> 100 µM
same,TGI,[9],> 100 µM
same,TGI,[13],> 100 µM
